Laboratory results as given in patent US20150225377A1, “VEGFR3 INHIBITORS” (CANCER THERAPEUTICS CRC PTY LIMITED, priority 2012, published 2015).

Target: T1, VEGFR2 (Homo sapiens, UniProt P35968)
T1 construct: host or cells: HUVEC
Experiment: VEGFR2 Phospho ELISA assay in HUVEC, VEGF stimulated
Format: cell-based
Conditions: 1 hour compound, 50 ng/mL VEGF 10 minutes
Method: Adult human umbilical vein endothelial cells (HUVEC) (Cat#CC-2519, Lonza) were seeded into clear-bottom, TC treated 12 well plates (Cat #665180, Greiner Bio-One) in EGM-2 (Cat#CC-3162, Lonza) at 180,000 cells/well (volume 1 mL), and the plates incubated at 37° C. and 5% CO2 for 6 hours. The media was replaced with EBM-2 (Cat #CC-3156, Lonza)+0.1% BSA (Cat#A8412, Sigma) and cells incubated for a further period (overnight at 37° C. and 5% CO2).
96 well Maxisorp immuno plates (Cat #439454, Nunc) were coated with 100 μL of Total VEGFR^2 capture antibody (Part #841434, Human Total VEGFR^2/FLT4 ELISA Kit, Cat #DYC1780, R&D Systems), or Phospho VEGFR^2 Capture antibody (Part #841419, Human Phospho VEGFR^2/FLT4 ELISA Kit, Cat#DYC1766, R&D Systems). The plates were covered and incubated at room temperature overnight.
The coating antibody was flicked out and the plates washed three times with Wash Buffer (Phosphate buffered saline (137 mM NaCl, […], […], […], pH 7.2-7.4), 0.05% Tween 20). 300 μL of Blocking buffer (1% v/v BSA (Cat#A8412, Sigma) in PBS) was then added to wells and plate incubated for 2 hours at room temperature. Blocking solution is flicked out and plates washed three times and tapped dry.
Compound dilution series were prepared in EBM-2 (Cat #CC-3156, Lonza)+0.1% BSA (Cat#A8412, Sigma) with constant 0.1% DMSO concentration. 427.5 μL of sample or vehicle control was added to the cell monolayers. Cells are treated for 1 hour at 37° C. and 5% CO2. 50 ng/mL Recombinant human VEGF (Cat #293-VC, R & D Systems) added to wells and plates incubated for an additional 10 minutes at 37° C. and 5% CO2.
The media and compounds were removed and the cell monolayer washed once in Dulbecco's Phosphate Buffered Saline (Cat #21600-044, Invitrogen). 130 μL of Lysis buffer added to wells and cell lysate harvested and transferred to tubes and stored on ice. Complete lysis buffer was prepared by adding 10 μL Protease Inhibitor Cocktail (Cat #P8340, Sigma-Aldrich), 10 μL PMSF (Phenylmethanesulfonyl fluoride, Cat #P7626, Sigma-Aldrich, prepared as 500 mM DMSO stock) per 1 mL of Phosphosafe™ Extraction Reagent (Cat #71296, Merck).
The harvested samples were then diluted 1:2 in IC Diluent #12 (1% NP-40, […] (pH 8.0), 137 mM NaCl, 10% glycerol, 2 mM EDTA, 1 mM activated sodium orthovanadate) and 100 μL transferred to the Total and Phospho VEGFR^2 coated, blocked and washed 96 well plates and incubated for 2 hours at room temperature. The plates were then washed three times in wash buffer as described above and tapped dry.
For detection of Total VEGFR^2100 μL of Detection antibody (Total VEGFR^2 Detection Antibody Part#841435 in Total VEGFR^2 kit) diluted in IC Diluent #14 (20 mM Tris, […], 0.05% Tween20, 0.1% BSA) was added to wells and the plate incubated for 2 hours at room temperature. The plate was then washed three times in wash buffer and tapped dry. 100 μL of streptavidin-HPR diluted in IC diluent #14 Streptavidin-HRP, Part #890803 in Total VEGFR^2 kit) was added to wells and incubated at room temperature for 20 minutes followed by washing as described above. 100 μL Substrate solution (3,3′,5,5′-Tetramethylbenzidine (TMB) Liquid Substrate System for ELISA, Cat #T0440, Sigma-Aldrich) was added and the plate incubated for 20 minutes in the dark at room temperature followed by the addition of 50 μL stop solution (2 M H2SO4).
Total VEGFR^2 levels were quantified using a Multiskan Ascent plate reader and Ascent software fitted with 450 nm filter.
For detection of Phospho VEGFR^2, 100 μL of Detection antibody (Anti-Phospho-Tyrosine-HRP Detection Antibody, Part #841403 in Phospho VEGFR^2 kit) was diluted in IC Diluent 14 (20 mM Tris, […], 0.05% Tween20, 0.1% BSA), was added to the wells and the plate incubated for 2 hours at room temperature. The plate was then washed three times in wash buffer as described above and tapped dry. […]

T1 sequence (P35968 20-1356): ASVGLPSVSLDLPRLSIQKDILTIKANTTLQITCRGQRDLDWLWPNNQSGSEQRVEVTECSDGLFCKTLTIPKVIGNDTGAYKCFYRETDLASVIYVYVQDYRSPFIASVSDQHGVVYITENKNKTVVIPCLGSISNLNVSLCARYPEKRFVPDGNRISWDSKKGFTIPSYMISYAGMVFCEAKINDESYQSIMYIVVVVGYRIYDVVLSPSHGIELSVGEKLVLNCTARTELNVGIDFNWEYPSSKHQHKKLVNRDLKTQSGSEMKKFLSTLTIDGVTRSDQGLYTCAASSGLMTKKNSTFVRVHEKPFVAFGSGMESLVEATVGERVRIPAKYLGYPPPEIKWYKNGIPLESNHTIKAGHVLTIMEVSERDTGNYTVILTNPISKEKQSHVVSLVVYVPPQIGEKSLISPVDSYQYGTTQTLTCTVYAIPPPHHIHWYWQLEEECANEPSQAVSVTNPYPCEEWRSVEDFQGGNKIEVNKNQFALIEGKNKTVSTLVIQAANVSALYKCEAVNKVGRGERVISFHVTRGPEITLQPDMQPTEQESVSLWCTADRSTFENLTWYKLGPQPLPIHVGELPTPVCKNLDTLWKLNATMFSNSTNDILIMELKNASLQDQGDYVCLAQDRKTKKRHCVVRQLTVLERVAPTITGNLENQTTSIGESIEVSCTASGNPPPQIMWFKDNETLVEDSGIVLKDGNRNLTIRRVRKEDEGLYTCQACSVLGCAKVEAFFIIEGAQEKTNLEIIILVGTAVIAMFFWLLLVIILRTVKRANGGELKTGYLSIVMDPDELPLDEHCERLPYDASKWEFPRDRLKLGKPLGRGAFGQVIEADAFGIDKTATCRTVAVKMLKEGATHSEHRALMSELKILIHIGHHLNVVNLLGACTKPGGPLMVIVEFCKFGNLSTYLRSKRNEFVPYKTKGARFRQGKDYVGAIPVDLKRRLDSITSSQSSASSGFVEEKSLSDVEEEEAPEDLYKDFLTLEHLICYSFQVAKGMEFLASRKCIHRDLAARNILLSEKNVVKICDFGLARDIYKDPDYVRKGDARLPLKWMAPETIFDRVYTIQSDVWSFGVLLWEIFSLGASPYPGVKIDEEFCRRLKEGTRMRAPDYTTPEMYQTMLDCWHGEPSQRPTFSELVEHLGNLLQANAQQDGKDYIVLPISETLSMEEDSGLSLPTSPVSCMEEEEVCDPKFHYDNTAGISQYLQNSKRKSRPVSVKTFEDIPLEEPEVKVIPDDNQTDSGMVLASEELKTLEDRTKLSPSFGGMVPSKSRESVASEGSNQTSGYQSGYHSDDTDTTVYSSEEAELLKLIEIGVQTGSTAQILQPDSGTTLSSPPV

| SMILES | IC50 |
| --- | --- |
| Cc1cnc(Nc2ccc(N3CCNCC3)cc2)nc1CCc1ccccc1CC(N)=O [Compound 2, 2-(2-(2-(5-methyl-2-((4-(piperazin-1-yl)phenyl)amino)pyrimidin-4-yl)ethyl)phenyl)acetamide] | 4400 nM |
| Cc1cnc(Nc2ccc(C3CCNCC3)nc2)nc1CCc1ccccc1CC(N)=O [Compound 4, 2-(2-(2-(5-methyl-2-((6-(piperidin-4-yl)pyridin-3-yl)amino)pyrimidin-4-yl)ethyl)phenyl)acetamide] | > 10000 nM |
| CC(N)c1ccc(Nc2ncc(C(F)(F)F)c(CCc3ccccc3CC(N)=O)n2)cc1 (stereo not drawn) [Compound 18, 2-(2-(2-(2-(4-(1-aminoethyl)phenylamino)-5-(trifluoromethyl)pyrimidin-4-yl)ethyl)phenyl)acetamide] | 2550 nM |
| Cc1cnc(Nc2cccnc2)nc1CCc1ccccc1CC(N)=O [Compound 24, 2-(2-(2-(5-methyl-2-(pyridin-3-ylamino)pyrimidin-4-yl)ethyl)phenyl)acetamide] | > 10000 nM |
| Cc1cnc(Nc2ccc(OC3CCNCC3)cc2)nc1CCc1ccccc1CC(N)=O [Compound 26, 2-(2-(2-(5-methyl-2-((4-(piperidin-4-yloxy)phenyl)amino)pyrimidin-4-yl)ethyl)phenyl)acetamide] | 4070 nM |
| Cc1cnc(Nc2cnn(C)c2)nc1CCc1ccccc1CC(N)=O [Compound 28, 2-(2-(2-(5-methyl-2-((1-methyl-^1H-pyrazol-4-yl)amino)pyrimidin-4-yl)ethyl)phenyl)acetamide] | 6840 nM |
| Cc1cnc(Nc2ccc(C3(N)COC3)cc2)nc1CCc1ccccc1CC(N)=O [Compound 31, 2-(2-(2-(2-(4-(3-aminooxetan-3-yl)phenylamino)-5-methylpyrimidin-4-yl)ethyl)phenyl)acetamide] | 5100 nM |
| Cc1cnc(Nc2cnn(C3CCNCC3)c2)nc1CCc1ccccc1CC(N)=O [Compound 33, 2-(2-(2-(5-Methyl-2-((1-(piperidin-4-yl)-^1H-pyrazol-4-yl)amino)pyrimidin-4-yl)ethyl)phenyl)acetamide] | > 10000 nM |
| CC(N)c1ccc(Nc2ncc(Cl)c(CCc3ccccc3CC(N)=O)n2)cc1 (stereo not drawn) [Compound 37, 2-(2-(2-(2-(4-(1-aminoethyl)phenylamino)-5-chloropyrimidin-4-yl)ethyl)phenyl)acetamide] | 200 nM |
